Where two headings read alike, the source gives them in different places.
How the values were obtained:
[1] = tested on: MCF-7 human breast adenocarcinoma cells; assay: Cytotoxicity, SRB assay, 48 h; type: cell-based; conditions: Homo sapiens, MCF7
Experimental: (§1) To further assess the biological efficacies of the Compounds in intact cells, each Compound was evaluated for cytotoxicity using human cancer cell lines. These experiments followed methods that have been extensively used. Cell lines tested included MCF-7 human breast adenocarcinoma cells. The indicated cell lines were treated with varying doses of the test Compound for 48 h. Cell survival was then determined using the SRB binding assay (Skehan et al., 1990, J Natl Cancer Inst 82: 1107), and the concentration of compound that inhibited proliferation by 50% (the IC50) was calculated. Values (in μM) represent the mean±sd for replicate trials.

DU145 (prostate) = assay: Cytotoxicity, sulforhodamine B, 48 h; type: cell-based; conditions: Homo sapiens, DU-145, mean ± sd
Experimental: as §1

MDA-MB-231 (breast, ER−) = assay: Cytotoxicity, sulforhodamine B, 48 h; type: cell-based; conditions: Homo sapiens, mean ± sd
Experimental: as §1

SK-OV-3 (ovary) = assay: Cytotoxicity, sulforhodamine B, 48 h; type: cell-based; conditions: Homo sapiens, mean ± sd
Experimental: as §1

A-498 (Kidney) = assay: Cytotoxicity, sulforhodamine B, 48 h; type: cell-based; conditions: Homo sapiens, A498, mean ± sd
Experimental: as §1

HT-29 (colon) = assay: Cytotoxicity, sulforhodamine B, 48 h; type: cell-based; conditions: Homo sapiens, mean ± sd
Experimental: as §1

1025LU (Melanoma) = assay: Cytotoxicity, sulforhodamine B, 48 h; type: cell-based; conditions: Homo sapiens, mean ± sd
Experimental: as §1

Hep-G2 (liver) = assay: Cytotoxicity, sulforhodamine B, 48 h; type: cell-based; conditions: Homo sapiens, HepG2, mean ± sd
[2] = tested on: diverse panel of 20 purified kinases; assay: Kinase selectivity panel, overall statement; type: biochemical; conditions: 50 μM
Experimental: A common problem with previous attempts to develop protein kinase inhibitors is the lack of selectivity toward the target kinase since the majority of these compounds interact with nucleotide-binding domains that are highly conserved among kinases. To determine if compound of this invention are non-selective kinase inhibitors, the effects of the SK inhibitor, Compound 73, on a diverse panel of 20 purified kinases was determined. The compound was tested at a single concentration of 50 μM.
The panel included both serine/threonine kinases and tyrosine kinases, as well as several that are regulated by their interaction with lipids.

[3] = tested on: JC murine adenocarcinoma cells in Balb/c mice; assay: JC mammary adenocarcinoma syngeneic tumor model; type: in vivo; conditions: for inhibition of tumor growth relative to controls: 50 mg/kg IP every-other day, Balb/c mice; for In vivo activity: JC tumor model, intraperitoneal (ip) or oral (po)
Experimental: FIG. 1. Inhibition of tumor growth by SK inhibitors. Balb/c female mice were injected subcutaneously with JC murine adenocarcinoma cells suspended in PBS. After palpable tumor growth, animals were treated by intraperitoneal injection of either 0.1 mL of 50% DMSO (control, circles) or 50 mg/kg of Compound 8 (squares) or Compound 73 (triangles) on odd numbered days. Whole body weight and tumor volume measurement were performed for up to 18 days. * p<0.05. Inset: Averaged body weights of mice from each group during course of study.
FIG. 2. Dose-response relationships for inhibition of tumor growth by Compound 8. Balb/c female mice were injected subcutaneously with JC cells suspended in PBS. After palpable tumor growth, animals were treated by oral gavage of either 100 μl of PEG400 (control, circles) or Compound 8 at 3.5 mg/kg (diamonds), 10 mg/kg (inverted triangles), 35 mg/kg (triangles) or 100 mg/kg (squares) on odd numbered days. Whole body weight and tumor volume measurement were performed for up to 18 days.
The SK inhibitors Compounds 8 and 73 were dissolved in 50% DMSO and administered by intraperitoneal injection to mice every-other day at a dose of 50 mg/kg. Body weights and tumor volumes were monitored daily.

T24 (bladder) = assay: Cytotoxicity, sulforhodamine B, 48 h; type: cell-based; conditions: Homo sapiens, mean ± sd
[4] = tested on: female Swiss-Webster mice; assay: In vivo toxicity in mice; conditions: orally up to at least 100 mg/kg
Caco-2 (colon) = assay: Cytotoxicity, sulforhodamine B, 48 h; type: cell-based; conditions: Homo sapiens, mean ± sd
Panc-1 (pancreas) = assay: Cytotoxicity, sulforhodamine B, 48 h; type: cell-based; conditions: Homo sapiens, mean ± sd
physchem = type: physicochemical; conditions: aqueous with cosolvent or surfactant or cyclodextrin, in DMSO: PBS (IP) or PEG400 (oral)
[5] = Oral pharmacokinetics in mice; type: in vivo; conditions: mouse, whole blood; for AUC(0-inf): 100 mg/kg oral gavage in PEG400, female Swiss-Webster mice, blood
Experimental: Oral pharmacokinetic studies were performed on Compound 8. The compound was dissolved in PEG400 and administered to female Swiss-Webster mice at a dose of 100 mg/kg by oral gavage. Mice were anesthetized and blood was removed via cardiac puncture at 5 minutes, 30 minutes, 1, 2, and 8 hours. Concentrations of the test compounds were determined using liquid-liquid extraction, appropriate internal standards and reverse phase HPLC with UV detection. Control blood samples were run to identify compound-specific peaks. Pharmacokinetic parameters were calculated using the WINNONLIN analysis software package (Pharsight). Non-compartmental and compartmental models were tested, with the results shown in Table 8 derived from the best fit equations.

[6] = Table 6, 48 h, SRB, inhibition of cell proliferation, read-out: MCF-7 IC50
[7] = Table 7, 48 hours, mean ± sd, read-out: IC50 (μM) MCF-7
[8] = female, Swiss-Webster, 100 mg/kg oral gavage, mice

| Compound | IC50 [1, 6] [µM] | IC50 [1, 7] [µM] | IC50 (DU145 (prostate)) [µM] | IC50 (MDA-MB-231 (breast, ER−)) [µM] | IC50 (SK-OV-3 (ovary)) [µM] | IC50 (A-498 (Kidney)) [µM] | IC50 (HT-29 (colon)) [µM] | IC50 (1025LU (Melanoma)) [µM] | IC50 (Hep-G2 (liver)) [µM] | inhibition of tumor growth relative to controls [3] [%] | In vivo activity [3] | IC50 (T24 (bladder)) [µM] | toxicity, oral administration [4] | IC50 (Caco-2 (colon)) [µM] | IC50 (Panc-1 (pancreas)) [µM] | solubility (physchem; read-out: solubility) [mg/mL] | solubility (physchem; read-out: solubility (molar)) [mM] | further results |
| --- | --- | --- | --- | --- | --- | --- | --- | --- | --- | --- | --- | --- | --- | --- | --- | --- | --- | --- |
| Clc1ccc(-c2csc(NCc3ccccc3)n2)cc1 [Compound 73, Benzyl-[4-(4-chloro-phenyl)-thiazol-2-yl]-amine] | 8.3 | 1.8 ± 0.7 | 6.5 ± 3.6 | 26.6 ± 6.7 | 10.2 ± 0.3 | 4 ± 1.9 | 29.9 ± 9.4 | 8.3 ± 2.4 | 13.8 ± 8.7 | 69 | active - ip | 22.7 ± 4.8 | without noticeable toxicity | 6.3 ± 5.2 | 6.7 ± 2.4 | ≥ 15 | 30 to 40 | inhibition of the 20 kinases of the panel [2]: none of the 20 diverse kinases tested were significantly inhibited |
| CCCC(=O)Oc1ccc(C=CC(=O)Nc2nc(-c3ccc(Cl)cc3)cs2)cc1OC [Compound 8, Butyric acid 4-{2-[4-(4-chloro-phenyl)-thiazol-2-ylcarbamoyl]-vinyl}-2-methoxy-phenyl ester] | 6.6 | 25.2 ± 4.7 | 21.2 ± 1.3 | 30.1 ± 3.9 | 23.7 ± 3.2 | 38.3 ± 7.7 | 54.7 ± 0.1 | 30.1 ± 3.9 | 81.5 ± 38.9 | 66 | active - ip and po | 25.2 ± 2.9 | without noticeable toxicity | 2.6 ± 1.2 | 19 ± 2.5 | ≥ 15 | 30 to 40 | Cmax [5, 8]: 34.4 µM; Tmax [5, 8]: 1 h; half-life [5, 8]: 31.9 h; AUC(0-inf) ([5]; read-out: AUC0 → ∞ (μM*h)): 1500 µM·h; AUC(0-inf) ([5]; read-out: AUC0 → ∞ (μg*h/mL)): 475 µg·h/mL; oral doses with antitumor activity ([3]; oral gavage 3.5-100 mg/kg on odd numbered days): ≥ 10 mg/kg; toxicity to the mice in the dose-response study ([3]; oral, any dose (3.5-100 mg/kg)): No toxicity |
